Data as given in patent US8877799B2, “Inorganic salt complexes of vildagliptin” (Egis Gyogyszergynar Nyilvanosan Muekoedoe Reszvenytarsasag, priority 2009, dated 2014).

Legend:
compressibility = assay type: physicochemical
[1] = in water, after three days; pages 44 to 45 of WO 2007019255; cited from earlier work

Row | Compound | compressibility compared with vildagliptin base (compressibility) | active ingredient detectable [1]
1 | Vildagliptin Calcium(II)-Chloride Trihydrate Complex (1:1:3) | compressed significantly more preferably than the vildagliptin base | –
2 | N#C[C@@H]1CCCN1C(=O)CNC12CC3CC(CC(O)(C3)C1)C2 [vildagliptin base, 1-[2-(3-hydroxyadamant-1-yl-amino)acetyl]pyrrolidin-(2S)-carbonitrile] | – | 7.5%
